In patent publication US11278587B2 (9 METERS BIOPHARMA, INC., priority 2018, dated 2022):
Ends that are not written are not given here.

Tested on: MCA205 fibrosarcoma cells
Assay: MCA205 subcutaneous model, tumor growth kinetics
Type: in vivo, C57BL/6 mice
Settings: larazotide 2 days per week with anti-PD1 antibody i.p. at 3 day intervals

GGVLVQPG [larazotide]
enhancement of anti-PD1 effect on MCA205 tumor progression: did not appear to enhance this effect
